PMC12951562, “SH2scan: Mapping SH2 Domain-Ligand Binding Selectivity for Inhibitors and Degraders” (Journal of Medicinal Chemistry, 2026)
Like-named read-outs stand apart in the source and are kept apart here.

Columns and labels:
Assay in all cases: biochemical
Assay type in all cases: binding
[1] = target: T1, BRK (Homo sapiens, UniProt Q13882); conditions: for remaining activity at 10 µM: read-out: percent of DMSO vehicle control; for KD: dose-response
T1 construct: the DNA-tagged SH2 domain concentrations used in this study were <0.1 nM; made in house; host or cells: HEK293 (transient transfection; unpurified extract)

[2] = target: T2, LNK (SH2B3) (Homo sapiens, UniProt Q9UQQ2); conditions: for remaining activity at 10 µM: read-out: percent of DMSO vehicle control
T2 construct: the DNA-tagged SH2 domain concentrations used in this study were <0.1 nM; made in house; host or cells: HEK293 (transient transfection, unpurified extract)

[3] = target: T3, MIST (Homo sapiens, UniProt Q7Z7G1); conditions: read-out: percent of DMSO vehicle control; for remaining activity at 10 µM: primary screen
T3 construct: the DNA-tagged SH2 domain concentrations used in this study were <0.1 nM; made in house; host or cells: HEK293 (transient transfection, unpurified extract)
T3 sequence (Q7Z7G1 309-419 limits assumed): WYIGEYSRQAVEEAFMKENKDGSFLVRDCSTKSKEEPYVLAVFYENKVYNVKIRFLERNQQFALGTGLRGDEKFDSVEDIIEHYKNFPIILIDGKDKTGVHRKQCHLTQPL

[4] = target: T4, PIK3R1(SH2dom.C-term.) (Homo sapiens, UniProt P27986); conditions: for remaining activity at 10 µM: read-out: percent of DMSO vehicle control; for Kd: dose-response, read-out: KD
T4 construct: SH2dom.C-term. denotes SH2 domain closest to C-terminus of protein; made in house; host or cells: HEK293 (transient transfection, unpurified extract)

[5] = target: T5, PLCG1(SH2dom.C-term.) (Homo sapiens, UniProt P19174); conditions: for remaining activity at 10 µM: read-out: percent of DMSO vehicle control; for Kd: dose-response, read-out: KD
T5 construct: SH2dom.C-term. denotes SH2 domain closest to C-terminus of protein; made in house; host or cells: HEK293 (transient transfection, unpurified extract)
T5 sequence (P19174 668-756 limits assumed): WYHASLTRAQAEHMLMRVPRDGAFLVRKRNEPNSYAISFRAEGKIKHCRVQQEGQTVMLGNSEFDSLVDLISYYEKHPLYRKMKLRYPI

[6] = target: T6, SHC2 (Homo sapiens, UniProt P98077); conditions: read-out: percent of DMSO vehicle control
T6 construct: made in house; host or cells: HEK293 (transient transfection), unpurified extract
T6 sequence (P98077 1-582): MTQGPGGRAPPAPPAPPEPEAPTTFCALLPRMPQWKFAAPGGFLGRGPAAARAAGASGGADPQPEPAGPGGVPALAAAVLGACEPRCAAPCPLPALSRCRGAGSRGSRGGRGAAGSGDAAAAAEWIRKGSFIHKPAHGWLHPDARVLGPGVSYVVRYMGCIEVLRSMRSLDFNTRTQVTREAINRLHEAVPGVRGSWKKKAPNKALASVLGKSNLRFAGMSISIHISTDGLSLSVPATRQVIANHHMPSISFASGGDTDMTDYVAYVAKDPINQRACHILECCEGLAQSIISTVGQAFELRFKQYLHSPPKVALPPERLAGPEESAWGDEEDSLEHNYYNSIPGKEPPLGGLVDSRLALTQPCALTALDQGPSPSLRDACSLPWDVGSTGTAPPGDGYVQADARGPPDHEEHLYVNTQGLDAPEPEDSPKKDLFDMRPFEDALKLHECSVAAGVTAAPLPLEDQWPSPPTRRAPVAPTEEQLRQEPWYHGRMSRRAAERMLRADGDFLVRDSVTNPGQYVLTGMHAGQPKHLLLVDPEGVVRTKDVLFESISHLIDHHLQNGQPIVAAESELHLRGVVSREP

[7] = target: T7, SH2D1A (Homo sapiens, UniProt O60880); conditions: read-out: percent of DMSO vehicle control
T7 construct: made in house; host or cells: HEK293 (transient transfection), unpurified extract
T7 sequence (O60880 1-128): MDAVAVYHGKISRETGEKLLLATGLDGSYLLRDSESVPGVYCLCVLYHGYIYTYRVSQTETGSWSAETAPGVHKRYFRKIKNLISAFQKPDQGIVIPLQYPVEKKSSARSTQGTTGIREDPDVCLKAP

[8] = target: T8, STAT3(E616del)-nonphosphorylated (Homo sapiens, UniProt P40763, DEL616-616); conditions: for percent of DMSO vehicle control at 10 µM / remaining activity at 10 µM: read-out: percent of DMSO vehicle control; for remaining activity at 10 µM: primary screen
T8 construct: made in house; host or cells: HEK293 (transient transfection), unpurified extract, dephosphorylated by endogenous phosphatases

[9] = target: T9, STAT5B(N642H) (Homo sapiens, UniProt P51692, N642H); conditions: for percent of DMSO vehicle control at 10 µM / remaining activity at 10 µM: read-out: percent of DMSO vehicle control; for remaining activity at 10 µM: primary screen
T9 construct: made in house; host or cells: HEK293 (transient transfection), unpurified extract
T9 sequence (P51692 1-787 N642H): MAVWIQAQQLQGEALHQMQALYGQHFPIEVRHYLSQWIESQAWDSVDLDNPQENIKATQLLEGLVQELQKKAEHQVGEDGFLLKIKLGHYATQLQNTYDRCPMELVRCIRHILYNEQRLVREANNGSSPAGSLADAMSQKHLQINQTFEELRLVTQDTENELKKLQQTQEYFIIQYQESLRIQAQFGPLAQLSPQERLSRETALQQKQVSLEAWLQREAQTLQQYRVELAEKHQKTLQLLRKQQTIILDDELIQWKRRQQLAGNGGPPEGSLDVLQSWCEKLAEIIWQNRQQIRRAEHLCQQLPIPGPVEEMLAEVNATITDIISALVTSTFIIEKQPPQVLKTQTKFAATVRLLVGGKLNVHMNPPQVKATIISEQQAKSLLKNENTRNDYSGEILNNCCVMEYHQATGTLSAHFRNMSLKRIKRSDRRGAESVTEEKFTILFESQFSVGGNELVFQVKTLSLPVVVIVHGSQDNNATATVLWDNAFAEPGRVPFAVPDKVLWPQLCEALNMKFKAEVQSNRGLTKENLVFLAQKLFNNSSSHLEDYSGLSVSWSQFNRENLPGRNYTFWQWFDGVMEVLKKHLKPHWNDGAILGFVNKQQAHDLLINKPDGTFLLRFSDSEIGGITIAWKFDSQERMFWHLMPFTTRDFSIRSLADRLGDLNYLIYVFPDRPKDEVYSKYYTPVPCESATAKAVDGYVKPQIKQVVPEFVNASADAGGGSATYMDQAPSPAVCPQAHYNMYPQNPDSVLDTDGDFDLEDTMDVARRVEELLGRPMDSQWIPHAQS

| Structure (SMILES) | remaining activity at 10 µM [1] [%] | remaining activity at 10 µM [2] [%] | percent of DMSO vehicle control at 10 µM [3] [%] | remaining activity at 10 µM [4] [%] | remaining activity at 10 µM [5] [%] | remaining activity at 10 µM [6] [%] | remaining activity at 10 µM [7] [%] | percent of DMSO vehicle control at 10 µM [8] [%] | percent of DMSO vehicle control at 10 µM [9] [%] | KD [1] | remaining activity at 10 µM ([1]; primary screen, 10 μM) [%] | remaining activity at 10 µM ([2]; primary screen, 10 μM) [%] | remaining activity at 10 µM [3] [%] | Kd [4] [nM] | remaining activity at 10 µM ([4]; primary screen, 10 μM) [%] | remaining activity at 10 µM ([5]; primary screen, 10 μM) [%] | remaining activity at 10 µM ([6]; primary screen, 10 μM) [%] | remaining activity at 10 µM ([7]; primary screen, 10 μM) [%] | remaining activity at 10 µM [8] [%] | remaining activity at 10 µM [9] [%] | also measured |
| --- | --- | --- | --- | --- | --- | --- | --- | --- | --- | --- | --- | --- | --- | --- | --- | --- | --- | --- | --- | --- | --- |
| NC(=O)CC[C@H](NC(=O)[C@@H]1CC[C@@H]2CCN(C(=O)CCCCCC#Cc3cccc4c3CN(C3CCC(=O)NC3=O)C4=O)C[C@H](NC(=O)c3cc4cc(C(F)(F)P(=O)(O)O)ccc4[nH]3)C(=O)N21)C(=O)NC(c1ccccc1)c1ccccc1 (stereo partly shown) [SD-36] | 76.9 ± 3.5 | 86.6 | 104 ± 8.6 | 94.6 ± 6.5 | 85.7 ± 0.8 | 94.9 ± 2.3 | 354 | 0 | 3.2 ± 0.8 |  |  |  |  |  |  |  |  |  |  |  | Kd ([8]; dose-response): 28 ± 11 nM; Kd ([9]; dose-response): 2400 ± 740 nM |
| CC(=O)N1CC[C@H]2CC[C@@H](C(=O)N[C@@H](CCC(N)=O)C(=O)NC(c3ccccc3)c3ccccc3)N2C(=O)[C@@H](NC(=O)c2cc3cc(C(F)(F)P(=O)(O)O)ccc3[nH]2)C1 [SI-109] | 124 | 81.4 ± 6.7 | 104 | 128 | 98 ± 1.4 | 131 | 87.6 | 0.1 | 123 |  |  |  |  |  |  |  |  |  |  |  | Kd [8]: 8.7 ± 3.4 nM; Kd [9]: 19000 ± 8500 nM |
| C/C(=C\C(=O)N[C@H](C(=O)N1CCC[C@H]1C(=O)N(c1ccccc1)c1ccc(I)cc1)C(C)(C)C)c1ccc(OP(=O)(O)O)cc1 [STAT6-IN-1] |  |  |  |  |  |  |  |  |  | No Hit | 3 ± 0.4 | 6.9 ± 3.8 | 88.7 ± 5.9 | 3400 ± 1100 | 12.3 ± 0.1 | 1.5 ± 2.1 | 47.3 ± 3.3 | 68.7 ± 3.5 | 0 | 0 | Kd ([2]; dose-response, read-out: KD): 2300 ± 140 nM; Kd [5]: 2050 ± 210 nM; Kd ([8]; dose-response, read-out: KD): 140 ± 35 nM; Kd ([9]; dose-response, read-out: KD): 5.6 ± 2.1 nM |
| CC(C)(C)[C@H](NC(=O)/C=C/c1ccc(OP(=O)(O)O)cc1)C(=O)N1CCC[C@H]1C(=O)N(c1ccccc1)c1ccc(I)cc1 [STAT6-IN-3] |  |  |  |  |  |  |  |  |  | No Hit | 4.1 ± 47.5 | 62 ± 5.7 | 102 ± 8.1 | 3000 ± 730 | 32.6 ± 4.4 | 24.7 ± 7 | 85.2 ± 11.3 | 68.5 ± 43.7 | 0.4 ± 0.4 | 1.3 ± 7.7 | Kd [5]: 3800 ± 280 nM; Kd ([8]; dose-response, read-out: KD): 280 ± 120 nM; Kd ([9]; dose-response, read-out: KD): 36 ± 27 nM |
| O=C(COc1ccc2cc(C(=O)Nc3ccccc3)ccc2c1)NCc1ccc(OP(=O)(O)O)c(OP(=O)(O)O)c1 [Stafib-1] |  |  |  |  |  |  |  |  |  | No Hit | 5.4 ± 60.2 | 94.8 ± 14.4 | 96.8 ± 9.3 |  | 85.3 ± 16.8 | 78.8 ± 17.8 | 83.4 ± 24.4 | 87.8 ± 37.4 | 135 | 12.5 ± 13.5 |  |
